Measured values: patent US11130769B2 (Prelude Therapeutics Incorporated, priority 2018, dated 2021)
Where two headings read alike, the source gives them in different places.

Experiments:
H929 cells = assay: Cell viability assay (H929 10 FBS); assay type: cell-based; conditions: Homo sapiens, NCI-H929, 24 hours, read-out: H929_10FBS IC50
Procedure, shortened: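 ATP-based luminescence (CellTiter-Glo or ATPlite 1 Step, 30-60 min at RT) gauged viability of H929 myeloma cells after 24 h compound treatment at 37 °C. Cells plated at 4000 per well in 10% FBS RPMI 1640 supplemented with pyruvate, HEPES and glucose.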

MCL-1 = MCL-1 (Homo sapiens (Human), UniProt Q07820); assay: Cell free Mcl-1:Bim affinity assay (fluorescence polarization competition); assay type: binding; conditions: 15 nM MCL-1, 5 nM FITC-Bim, 1 hour at room temperature, read-out: BIM_Ki
Sequence of MCL-1 (Q07820 whole entry): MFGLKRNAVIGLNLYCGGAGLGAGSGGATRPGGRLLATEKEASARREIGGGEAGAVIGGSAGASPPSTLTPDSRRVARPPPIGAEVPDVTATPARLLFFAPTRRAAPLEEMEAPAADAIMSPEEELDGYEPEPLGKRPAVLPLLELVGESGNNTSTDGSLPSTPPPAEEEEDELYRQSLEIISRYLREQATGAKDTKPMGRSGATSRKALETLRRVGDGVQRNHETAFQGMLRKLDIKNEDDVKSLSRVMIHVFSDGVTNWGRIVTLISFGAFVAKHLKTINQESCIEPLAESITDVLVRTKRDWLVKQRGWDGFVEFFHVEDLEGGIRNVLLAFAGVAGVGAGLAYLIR
Procedure, shortened: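 Fluorescence polarization competition: 10-point 3-fold compound dilutions displaced 5 nM FITC-Bim from 15 nM MCL-1 over 1 h at room temperature. Ki was derived from the fitted IC50 using the Nikolovska-Coleska equation, with percent inhibition normalized to DMSO and positive controls.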

Compound	IC50 (H929 cells) [nM]	Ki (MCL-1; class symbols) [nM]	Ki (MCL-1; numeric values) [nM]
CO[C@@H]1/C=C/C[C@H](C)[C@@H](CC(=O)N(C)C)C(=O)NS(=O)(=O)c2ccc3c(c2)N(C[C@@H]2CC[C@H]21)C[C@@]1(CCCc2cc(Cl)ccc21)CO3 [Example 91, 2-[(3R,6R,7R,8E,11S,12R,22S)-6′-Chloro-7-methoxy-11-methyl-13,15,15-trioxo-spiro[20-oxa-15-thia-1,14-diazatetracyclo[14.7.2.03,6.019,24]pentacosa-8,16,18,24-tetraene-22,1′-tetralin]-12-yl]-N,N-dimethyl-acetamide]	> 1000	1 to 100	
CCN1C/C=C/[C@H](OC(=O)N2CCN(CCOC)CC2)[C@@H]2CC[C@H]2CN2C[C@@]3(CCCc4cc(Cl)ccc43)COc3ccc(cc32)S(=O)(=O)NC(=O)C1(C)C [Example 225, [(3R,6R,7S,8E,22S)-6′-Chloro-11-ethyl-12,12-dimethyl-13,15,15-trioxo-spiro[20-oxa-15-thia-1,11,14-triazatetracyclo[14.7.2.03,6.019,24]pentacosa-8,16,18,24-tetraene-22,1′-tetralin]-7-yl] 4-(2-methoxyethyl)piperazine-1-carboxylate]	< 500	1 to 100	
CNCCNC(=O)O[C@H]1/C=C/COC(C)(C)C(=O)NS(=O)(=O)c2ccc3c(c2)N(C[C@@H]2CC[C@H]21)C[C@@]1(CCCc2cc(Cl)ccc21)CO3 [Example 157, [(3R,6R,7S,8E,22S)-6′-Chloro-12,12-dimethyl-13,15,15-trioxo-spiro[11,20-dioxa-15-thia-1,14-diazatetracyclo[14.7.2.03,6.019,24]pentacosa-8,16,18,24-tetraene-22,1′-tetralin]-7-yl] N-[2-(methylamino)ethyl]carbamate]	< 500	< 1	
O=C(Cc1ccccc1)NS(=O)(=O)c1ccc2c(c1)N(CC1CCC1)CC1(CCCc3cc(Cl)ccc31)CO2 (stereo not shown) [Example 5, N-[6′-Chloro-5-(cyclobutylmethyl)spiro[2,4-dihydro-1,5-benzoxazepine-3,1′-tetralin]-7-yl]sulfonyl-2-phenyl-acetamide]	> 1000		37.3
C[C@@H]1C(=O)NS(=O)(=O)c2ccc3c(c2)N(C[C@@H]2CC[C@H]2[C@@H](OC(=O)N(C)C)/C=C/CN1C)C[C@@]1(CCCc2cc(Cl)ccc21)CO3 [Example 145, [(3R,6R,7S,8E,12R,22S)-6′-Chloro-11,12-dimethyl-13,15,15-trioxo-spiro[20-oxa-15-thia-1,11,14-triazatetracyclo[14.7.2.03,6.019,24]pentacosa-8,16,18,24-tetraene-22,1′-tetralin]-7-yl] N,N-dimethylcarbamate]	< 500	< 1	
CC1(C)OC/C=C/[C@H](O)[C@@H]2CC[C@H]2CN2C[C@@]3(CCCc4cc(Cl)ccc43)COc3ccc(cc32)S(=O)(=O)NC1=O [Example 32, (3R,6R,7S,8E,22S)-6′-Chloro-7-hydroxy-12,12-dimethyl-15,15-dioxo-spiro[11,20-dioxa-15-thia-1,14-diazatetracyclo[14.7.2.03,6.019,24]pentacosa-8,16,18,24-tetraene-22,1′-tetralin]-13-one]	< 500	< 1	
CO[C@@H]1/C=C\CN(C)[C@H](C)C(=O)NS(=O)(=O)c2ccc3c(c2)N(C[C@@H]2CC[C@H]21)C[C@@]1(CCCc2cc(Cl)ccc21)CO3 [Example 124, (3R,6R,7R,8Z,12R,22S)-6′-Chloro-7-methoxy-11,12-dimethyl-15,15-dioxo-spiro[20-oxa-15-thia-1,11,14-triazatetracyclo[14.7.2.03,6.019,24]pentacosa-8,16(25),17,19(24)-tetraene-22,1′-tetralin]-13-one]	< 1000	1 to 100	
C[C@H]1NC/C=C/[C@H](OC(=O)N(C)C)[C@@H]2CC[C@H]2CN2C[C@@]3(CCCc4cc(Cl)ccc43)COc3ccc(cc32)S(=O)(=O)NC1=O [Example 146, [(3R,6R,7S,8E,12R,22S)-6′-Chloro-12-methyl-13,15,15-trioxo-spiro[20-oxa-15-thia-1,11,14-triazatetracyclo[14.7.2.03,6.019,24]pentacosa-8,16,18,24-tetraene-22,1′-tetralin]-7-yl] N,N-dimethylcarbamate]	< 500	1 to 100	
